Data: patent US8969544B2, “Combined use of PRAME inhibitors and HDAC inhibitors” (priority 2004, dated 2015)

Columns and labels:
RAS^V12-MEFs = experiment: growth of RAS^V12-MEFs in the presence of HDAC inhibitor; type: cell-based, mouse
Experimental: In order to address the molecular basis for the selective growth-inhibitory activity of HDACi on cancer cells, we performed a functional genetic screen to identify genes that confer resistance to a small-molecule HDACi, named PXD101 (Plumb et al, 2003). Oncogenic RAS^V12-transformed mouse embryonic fibroblasts (RAS^V12-MEFs) were infected with a high complexity retroviral cDNA expression library derived from human K562 erythroleukemia cells and exposed to 1 μM PXD101 for three to […]. HDACi-resistant colonies appeared at low frequency only after infection with cDNA expression library. Integrated proviruses were mobilized from PXD101-resistant colonies by Moloney virus super-infection as described (Jacobs et al, 2000). After second round selection, cDNA inserts were recovered by PCR and identified by DNA sequence analysis. Using this approach, we identified full-length cDNAs encoding the human melanoma tumour antigen PRAME (PReferentially expressed Antigen in MElanoma (Ikeda et al, 1997) and Retinoic Acid Receptor alpha (RARα) as cDNAs that allow continuous proliferation in the presence of 1 μM PXD101. PRAME also rescues these cells from growth arrest by a related HDACi, Trichostatin A at a concentration of 0.1 μM.
The observed effect of PRAME on RAR signalling could result from a physical interaction of PRAME with RAR or from more indirect effects. […]

[1] = tested on: histone H3 acetylation, p21; experiment: immunoblot for acetyl-H3 and p21 in Ras^V12 MEFs treated with HDACi; type: cell-based, mouse; settings: 1 μM PXD101 for 16 hrs; not prevented by PRAME or RARα expression
Experimental: Ras^V12 MEFs were also transduced with PRAME or RARα retrovirus and treated with 1 μM PXD101 for 16 hrs. Extracts were immunoblotted for acetyl-H3, p21, PRAME, RARα and CDK4 (control). […] Cells were lysed in Ripa buffer (50 mM Tris pH 8.0, 150 mM NaCl, 1% NP-40, 0.5% deoxycholic acid, and 0.1% SDS) supplemented with protease inhibitors (Complete; Roche) and […] PMSF and proteins were separated on 10-14% SDS-PAGE gels. Proteins were transferred to polyvinylidine difluoride membranes (Immobilon P, Millipore) and Western blots were probed with the indicated antibodies. For TAP (co-)immunoprecipitations cells were lysed in ELB buffer (0.25 M NaCl, 0.1% NP-40, 50 mM HEPES pH 7.3) supplemented with protease inhibitors and PMSF. Lysates were incubated with IgG-coated sepharose beads (Amersham) to immunoprecipitate TAP and TAP-PRAME (Rigaut et al 1999), indicated as anti-TAP, or with protein A beads and normal mouse serum (mock IP) for 2 hrs, washed, and separated on SDS-PAGE gels.

[2] = tested on: F9 mouse embryo carcinoma cells; experiment: RA-induced apoptosis in F9 cells (cleaved caspase 3); type: cell-based; settings: 10^−7 M RA; vector controls, not PRAME transfectants
From the text: RA induces proliferation arrest, differentiation and apoptosis in many cell types. We therefore asked if PRAME expression affected the RA-induced differentiation of F9 mouse embryo carcinoma cells towards parietal endoderm (Strickland and Mandavi, 1978). F9 cells were stably transfected with PRAME or control vector and individual colonies were selected. In the to absence of RA, the morphology of all transfected cells was the some as that of parental F9 cells. However, F9 cells stably transfected with PRAME […] and treated with 10^−7 M RA were resistant to RA-induced morphological differentiation and growth arrest. Apart from differentiating, a fraction of F9 cells treated with RA dies by apoptosis (Atencia et al, 1994). […] We conclude that PRAME expression confers resistance to RA-induced proliferation arrest, differentiation and apoptosis.
(§1) F9 cells were stably transfected with PRAME or empty vector and resistant cells were differentiated in 10^−7 M RA for 5 days. A375 cells were stably transfected with pRS-PRAME or empty vector and stable clones were cultured according to the 3T3 protocol. Medium with RA was refreshed every 24-48 hrs.

A375-PRAME^KD cells = experiment: proliferation of A375-PRAME^KD cells, 3T3 protocol; type: cell-based, human; settings: 15 days, medium with 5 μM RA
Experimental: (§2) To assess the effect of PRAME knockdown on cell proliferation, we generated stable derivatives of A375 melanoma having shRNA-mediated knockdown of PRAME expression (A375-PRAME^KD). These A375-PRAME^KD cells were cultured for 15 days according to the 3T3 protocol.
as §1

RARβ = experiment: immunoblot for endogenous RARβ in F9 cells treated with RA; type: cell-based, mouse; settings: 10^−7 M RA; parental and mock-transfected F9 cells, not PRAME-transfected
Experimental: (§3) Cells were lysed in Ripa buffer (50 mM Tris pH 8.0, 150 mM NaCl, 1% NP-40, 0.5% deoxycholic acid, and 0.1% SDS) supplemented with protease inhibitors (Complete; Roche) and […] PMSF and proteins were separated on 10-14% SDS-PAGE gels. Proteins were transferred to polyvinylidine difluoride membranes (Immobilon P, Millipore) and Western blots were probed with the indicated antibodies. For TAP (co-)immunoprecipitations cells were lysed in ELB buffer (0.25 M NaCl, 0.1% NP-40, 50 mM HEPES pH 7.3) supplemented with protease inhibitors and PMSF. Lysates were incubated with IgG-coated sepharose beads (Amersham) to immunoprecipitate TAP and TAP-PRAME (Rigaut et al 1999), indicated as anti-TAP, or with protein A beads and normal mouse serum (mock IP) for 2 hrs, washed, and separated on SDS-PAGE gels.

RARβ and p21 = experiment: immunoblot of RA target genes RARβ and p21 in A375-PRAME^KD cells; type: cell-based, human; settings: 5 μM RA
Experimental: as §3

A375-PRAMEKD cells = experiment: human melanoma xenograft model, A375-PRAMEKD tumours; type: in vivo, mouse; settings: 5 mg/kg RA p.o. daily, nude mice, PRAMEKD melanomas, vs vehicle
Experimental: To examine the role of PRAME in RA-responsiveness in vivo, we used a human melanoma xenograft model. Nude mice were subcutaneously transplanted with parental A375 into one flank and A375-PRAMEKD cells in the opposite flank and the mice were treated p.o. daily with either 5 mg/kg RA or vehicle only, while tumor volumes were measured weekly.
Female 5-6 week old athymic BALB-C nude mice (nu/nu) were s.c. implanted with 1×10^6 cells bilaterally into the axial regions. Each mouse received A375-PRAMEKD cells in its right flank and control A375 cells in its left flank. Mice were randomized into treatment groups and treated with 5 mg/kg RA or vehicle (ethanol in sunflower oil) p.o. with a 20-gauge intragastric feeding tube daily. Tumor diameter was measured with calipers weekly. The pRS vector which was used to generate A375-PRAMEKD cells is a self-inactivating retroviral vector, to prevent re-activation and spreading of virus (Brummelkamp et al., 2002a; Brummelkamp et al., 2002b). The experiment was performed twice, with n=20 and n=10 mice and results were similar in both experiments.

p21 promoter = experiment: p21 promoter-luciferase reporter in B16 melanoma cells; type: cell-based, mouse; settings: B16 melanoma cells treated with RA; suppressed by PRAME
Experimental: as §2
Transfections were carried out using the Lipofectamine reagent (Invitrogen), except for Ras^V12 MEFs and Phoenix cells, which were transfected using calcium phosphate precipitation. RA-based reporter assays were done in DMEM with charcoal-stripped FCS (Hyclone). In reporter assays 0.5 μg of reporter-luciferase, 1 ng CMV-renilla, and 3 μg of the indicated DNA were transfected. RA, PXD101, or TSA was added 24 hrs after transfection and assays were performed 48 hrs after transfection. In knock-down experiments, RA or PXD101 was added 72 hrs after transfection and assays were performed 96 hrs after transfection. Luciferase activities shown represent ratios between luciferase and renilla internal control values.

SMILES: O=C(/C=C/c1cccc(S(=O)(=O)Nc2ccccc2)c1)NO [PXD101, N-hydroxy-3-(3-phenylsulfamoyl-phenyl)-acrylamide]
- cell growth (RAS^V12-MEFs; 1 μM PXD101): growth arrest
- histone H3 acetylation [1]: increase
- p21 expression [1]: induction

SMILES: CC1=C(/C=C/C(C)=C/C=C/C(C)=C/C(=O)O)C(C)(C)CCC1 [RA, All-trans-retinoic acid]
- cleaved caspase 3 (apoptosis) [2]: apparent in vector controls
- proliferation rates (A375-PRAME^KD cells): significantly decreased proliferation rates, especially when cultured in the presence of RA
- endogenous RARβ protein expression (RARβ): induced
- induction of RA target genes RARβ and p21 (RARβ and p21): enhanced
- tumor growth (A375-PRAMEKD cells): severely retarded
- p21 promoter-luciferase reporter activity (p21 promoter): activated

SMILES: CC(/C=C/C(=O)NO)=C\[C@@H](C)C(=O)c1ccc(N(C)C)cc1 [Trichostatin A]
- cell growth (RAS^V12-MEFs; Trichostatin A 0.1 μM): growth arrest
